Experimental data published in ChEMBL document CHEMBL1177832, “One unique steroidal sapogenin obtained through the microbial transformation of ruscogenin by Phytophthora cactorum ATCC 32134 and its potential inhibitory effect on tissue factor (TF) procoagulant activity” (Bioorg Med Chem Lett, 2010).

What follows are compounds tested on THP-1 (assay: Anticoagulant activity in human THP1 cells assessed as inhibition of TNF-alpha-stimulated tissue factor expression incubated 1 hr before TNFalpha challenge measured after 5 hrs).
Type: functional, cell-based

Q: How did the IC50 turn out when `COc1cc(/C=C/C(=O)CC(=O)/C=C/c2ccc(O)c(OC)c2)ccc1O` [CURCUMIN] was run?
A: 1.21 µM

Q: Which IC50 does the source give for `C[C@@H]1CC[C@@]2(OC1)O[C@H]1C[C@H]3[C@@H]4CCC5=CC(=O)C[C@@H](O)[C@]5(C)[C@H]4CC[C@]3(C)[C@H]1[C@@H]2C` here?
A: 0.29 µM

Q: With `C[C@@H]1CC[C@@]2(OC1)O[C@H]1C[C@H]3[C@@H]4CC=C5C[C@@H](O)CC[C@]5(C)[C@H]4CC[C@]3(C)[C@H]1[C@@H]2C` [DISOGENIN] as the compound, how does the IC50 read?
A: 6.96 µM

Q: Which IC50 does the source give for `C[C@H]1CC[C@@]2(OC1)O[C@H]1C[C@H]3[C@@H]4CC[C@@H]5C[C@@H](O)CC[C@]5(C)[C@H]4CC[C@]3(C)[C@H]1[C@@H]2C` [SARSASAPOGENIN] here?
A: 3.3 µM

Q: `C[C@@H]1CC[C@@]2(OC1)O[C@H]1C[C@H]3[C@@H]4CC=C5C[C@@H](O)C[C@@H](O)[C@]5(C)[C@H]4CC[C@]3(C)[C@H]1[C@@H]2C` [RUSCOGENIN] was tested. Which IC50 did it give?
A: 2.27 µM
